Read-outs that look alike come from different tables or passages of the source.

Series [1] concerns the target T1, recombinant human kappa opioid receptor (Homo sapiens (Human), UniProt P41145). Kind of series: biochemical. The note with it: agonist mode; read-out: Kappa Agonist EC50, GTP-γS Binding.
Description: (§4) The reaction is initiated by 0.3 nM [^35S]GTPγS for an additional 30 minutes incubation period. Test compound-induced increase of [^35S]GTPγS binding by 50 percent or more (≥50%) relative to the receptor subtype-specific agonist response indicates possible opiate receptor agonist activity.
A further series in a line: in vivo. The note with it: rat, iv, 25 mg/kg.
Series [2] deals with T2, mu opioid receptor (Homo sapiens (Human), UniProt P35372). Put plainly: biochemical. The note with it: antagonist mode vs 1 μM DAMGO; read-out: Mu Antagonist IC50, GTP-γS Binding.
Description: as §4
In series [3] the target is T2, mu opioid receptor. Kind of series: cell-based. In kind it is binding. As to conditions: whole CHO cells, 0.5 nM 3H Naloxone; read-out: Ki at MU Receptors. The method, then:
(§1) Using conventional receptor binding assay techniques, several molecules were assayed to determine binding activity at kappa, mu and delta opioid subtypes of opioid receptors.
(§2) Cells were plated in 24 well plates at a density of 0.2-0.3*10^6 cells/well and washed with assay buffer containing 50 mM Tris.HCl and 5 mM MgCl2 (pH 7.4). Competition binding assays were conducted in whole cells incubated with increasing concentrations of test compounds in the presence of appropriate concentration of radioligand. 0.5 nM ^3H Naloxone, 0.5 nM ^3H Diprenorphine and 0.5 nM ^3H DPDPE were used as the competing radioligands for mu, kappa and delta receptors respectively. Incubations were carried out for two hours at room temperature using triplicate wells at each concentration. At the end of the incubation, cells were washed with 50 mM Tris HCl (pH 8.0), solubilized with NaOH and bound radioactivity was measured using a scintillation counter.
(§3) Specific binding is determined by subtraction of the cpm bound in the presence of 50-100× excess of cold ligand. Binding data assays were analyzed using GraphPad Prism 4.0 and IC50 is generated by non-linear regression from dose-response curves.

In series [4] the target is T1, recombinant human kappa opioid receptor. Kind of series: cell-based. It counts as binding. As to conditions: whole CHO cells, 0.5 nM 3H Diprenorphine; read-out: Ki at KAPPA receptors. How it is done: as §1, §2, §3
Series [5] concerns the target recombinant human delta opioid receptor (Homo sapiens (Human), UniProt P41143). Put plainly: Radioligand competition binding in whole CHO cells, delta opioid receptor (3H DPDPE). The method, then: as §1, §2, §3
Series [6] relates to CD-1 male mice (phenylquinone-induced writhing, visceral pain). Put plainly: Phenylquinone writhing analgesic assay. In kind it is in vivo. As to conditions: mPEGn-O-HydroxyCodone series, writhing 35-45 min after pretreatment. How it is done: Mice were treated according to standard protocols. Mice were given a single “pretreatment” dose of a compound lacking covalent attachment of a water-soluble, non-peptidic oligomer (i.e., non-PEG oligomer-modified parent molecule), a corresponding version comprising the compound covalently attached to a water-soluble, non-peptidic oligomer (i.e., the conjugate), or control solution (IV, SC, IP or orally) thirty minutes prior to the administration of the phenylquinone (PQ) solution. Each animal was given an IP injection of an irritant (phenylquinone, PQ) that induces “writhing” which may include: contractions of the abdomen, twisting and turning of the trunk, arching of the back, and the extension of the hindlimbs. Each animal was given an IP injection of PQ (1 mg/kg PQ, 0.1 mL/10 g bodyweight). After the injection, the animals were returned to their observation enclosure and their behavior was observed. Contractions were counted between 35 and 45 minutes after the “pretreatment”. The animals were used once. Each tested article was dosed at a range between 0.1 and 100 mg/kg (n=5-10 animals/dose).
(In writhing tests, fewer writhes than in controls are read as antinociception.)

Series [7] addresses T2, mu opioid receptor. It counts as binding. The note with it: mean IC50 ratio, ↓ = lower affinity. How it is done: Using conventional in vitro mu opioid receptor binding affinity assays, IC50 values were determined for each of alpha-6-mPEGn-O-hydrocodonol compounds.
A short description of series [8]: Plasma pharmacokinetics after intravenous dosing in male Sprague-Dawley rats. The note with it: IV 1 mg/kg, PEGylated hydroxycodone.
Series [9] has as its target cloned human mu opioid receptor (Homo sapiens (Human), UniProt P35372). It counts as cell-based. The note with it: inhibition of cAMP formation, 3 μM forskolin, whole cells. How it is done:
The efficacy of the various PEG-opioid conjugates was measured by their ability to inhibit cAMP formation following receptor activation. Studies were conducted in CHO cells heterologously expressing the cloned human mu, kappa or delta opioid receptors. cAMP was measured using a cAMP HiRange homogenous time-resolved fluorescence assay (HTRF Assay), that is based on a competitive immunoassay principle (Cisbio, Cat.#62AM6PEC).
Briefly, suspensions of cells expressing either the mu, kappa or delta opioid receptors were prepared in buffer containing 0.5 mM isobutyl-methyl xanthine (IBMX). […] EC50 values were calculated for each compound from a sigmoidal dose-response plot of concentrations versus maximum response. To determine if the compounds behaved as full or partial agonists in the system, the maximal response at the highest tested concentrations of compounds were compared to that produced by a known full agonist.

recombinant human delta opioid receptor, sequence (P41143 whole entry, looked up): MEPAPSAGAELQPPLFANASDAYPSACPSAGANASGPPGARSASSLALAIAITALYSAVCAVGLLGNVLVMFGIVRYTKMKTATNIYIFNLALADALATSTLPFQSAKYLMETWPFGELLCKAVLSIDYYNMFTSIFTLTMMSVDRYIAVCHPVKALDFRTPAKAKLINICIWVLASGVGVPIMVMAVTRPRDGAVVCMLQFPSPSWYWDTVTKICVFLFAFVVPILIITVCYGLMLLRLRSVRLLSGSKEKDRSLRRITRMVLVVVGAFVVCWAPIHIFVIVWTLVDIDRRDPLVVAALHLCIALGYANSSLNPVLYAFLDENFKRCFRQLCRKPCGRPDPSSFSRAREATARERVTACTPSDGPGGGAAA

By EC50 is commonly meant the midpoint of the concentration-response curve. In general, IC50 refers to the concentration needed to halve the response being measured. Broadly, the Ki is the dissociation constant of the complex between target and ligand, obtained from inhibition or displacement. Consider `COCCOCCOCCO[C@H]1CC[C@@]2(O)[C@H]3Cc4ccc(O)c5c4[C@@]2(CCN3CC2CCC2)[C@H]1O5` [6-O-mPEG3-Nalbuphine, 6-O-mPEG3-nalbuphine], for which the EC50 in series [1] came out at 26.8 nM. The Kp at 1 h in the series “in vivo” was determined as 0.23. In addition, the IC50 on mu opioid receptor [2] is 398 nM. Moreover, the Ki at mu opioid receptor [3] stood at 27.4 nM; in series [4], 218 nM; in [5], 163 nM.

In the case of `COCCOCCOCCOCCO[C@H]1CC[C@@]2(O)[C@H]3Cc4ccc(O)c5c4[C@@]2(CCN3CC2CCC2)[C@H]1O5` [6-O-mPEG4-Nalbuphine, 6-O-mPEG4-nalbuphine], the Ki at mu opioid receptor [3] was 17.5 nM; in [5], 149 nM.

As a reminder, the ED50 is the dose at which the effect has come halfway, by size or by number of responders. For the compound `COc1ccc2c3c1O[C@H]1C(=O)CC[C@@]4(O)[C@@H](C2)N(C)CC[C@]314` [Oxycodone, oxycodone, reference compound], the ED50 in [6] (Mus musculus, read-out: ED50) amounted to 0.619 mg/kg.

In the case of `COc1ccc2c3c1O[C@H]1[C@@H](O)CC[C@H]4[C@@H](C2)N(C)CC[C@@]341` [α-6-Hydrocodonol, 6-hydrocodonol, reference compound], the “Fold Change vs. Hydrocodone” value at mu opioid receptor [7] was 7.50 ↓.

For the compound `COCCO[C@H]1CC[C@H]2[C@H]3Cc4ccc(OC)c5c4[C@@]2(CCN3C)[C@H]1O5` [α-6-mPEG1-O-Hydrocodonol], at mu opioid receptor [7], the “Fold Change vs. Hydrocodone” value is reported as 6.03 ↓.

Turning to `COCCO[C@H]1CC[C@@]2(O)[C@H]3Cc4ccc(OC)c5c4[C@@]2(CCN3C)[C@H]1O5` [α-6-mPEG1-O-Hydroxycodone, α-6-mPEG1-O-hydroxycodone], in series [6], the ED50 was 6.064 mg/kg. In addition, the “mean exposure (AUC) as compared to oxycodone” value in series [8] is reported as “slightly lower mean exposure”.

`COCCOCCO[C@H]1CC[C@H]2[C@H]3Cc4ccc(OC)c5c4[C@@]2(CCN3C)[C@H]1O5` [α-6-mPEG2-O-Hydrocodonol]: on mu opioid receptor [7], the “Fold Change vs. Hydrocodone” value was 5.84 ↓.

Consider `COCCOCCO[C@H]1CC[C@@]2(O)[C@H]3Cc4ccc(OC)c5c4[C@@]2(CCN3C)[C@H]1O5` [α-6-mPEG2-O-Hydroxycodone, α-6-mPEG2-O-hydroxycodone], for which, in series [8], the “mean exposure (AUC) as compared to oxycodone” value is “slightly lower mean exposure”.

On to `COCCOCCOCCO[C@H]1CC[C@H]2[C@H]3Cc4ccc(OC)c5c4[C@@]2(CCN3C)[C@H]1O5` [α-6-mPEG3-O-Hydrocodonol], for which the “Fold Change vs. Hydrocodone” value at mu opioid receptor [7] is listed as 5.87 ↓.

Turning to `COCCOCCOCCOCCO[C@H]1CC[C@H]2[C@H]3Cc4ccc(OC)c5c4[C@@]2(CCN3C)[C@H]1O5` [α-6-mPEG4-O-Hydrocodonol], at mu opioid receptor [7], the “Fold Change vs. Hydrocodone” value is 7.14 ↓.

Regarding `COCCOCCOCCOCCO[C@H]1CC[C@@]2(O)[C@H]3Cc4ccc(OC)c5c4[C@@]2(CCN3C)[C@H]1O5` [α-6-mPEG4-O-Hydroxycodone, α-6-mPEG4-O-hydroxycodone], the ED50 in series [6] worked out at 17.31 mg/kg. Also, the “mean exposure (AUC) as compared to oxycodone” value in series [8] is on record as “slightly lower mean exposure”.

Consider `COCCOCCOCCOCCOCCO[C@H]1CC[C@H]2[C@H]3Cc4ccc(OC)c5c4[C@@]2(CCN3C)[C@H]1O5` [α-6-mPEG5-O-Hydrocodonol], for which the “Fold Change vs. Hydrocodone” value at mu opioid receptor [7] is 6.20 ↓.

On to `COCCOCCOCCOCCOCCOCCO[C@H]1CC[C@H]2[C@H]3Cc4ccc(OC)c5c4[C@@]2(CCN3C)[C@H]1O5` [α-6-mPEG6-O-Hydrocodonol], for which the “Fold Change vs. Hydrocodone” value on mu opioid receptor [7] is given as 11.12 ↓.

As for `COCCOCCOCCOCCOCCOCCO[C@H]1CC[C@@]2(O)[C@H]3Cc4ccc(OC)c5c4[C@@]2(CCN3C)[C@H]1O5` [α-6-mPEG6-O-Hydroxycodone, α-6-mPEG6-O-hydroxycodone], the “mean exposure (AUC) as compared to oxycodone” value in series [8] is listed as “comparable mean exposure”.

As to `COCCOCCOCCOCCOCCOCCOCCO[C@H]1CC[C@H]2[C@H]3Cc4ccc(OC)c5c4[C@@]2(CCN3C)[C@H]1O5` [α-6-mPEG7-O-Hydrocodonol], on mu opioid receptor [7], the “Fold Change vs. Hydrocodone” value is given as 26.32 ↓.

`COCCOCCOCCOCCOCCOCCOCCO[C@H]1CC[C@@]2(O)[C@H]3Cc4ccc(OC)c5c4[C@@]2(CCN3C)[C@H]1O5` [α-6-mPEG7-O-Hydroxycodone, α-6-mPEG7-O-hydroxycodone]: the “mean exposure (AUC) as compared to oxycodone” value in [8] is “higher mean exposure”.

As to `COCCOCCOCCOCCOCCOCCOCCOCCO[C@H]1CC[C@H]2[C@H]3Cc4ccc(OC)c5c4[C@@]2(CCN3C)[C@H]1O5` [α-6-mPEG8-O-Hydrocodonol], the “Fold Change vs. Hydrocodone” value at mu opioid receptor [7] was 40.10 ↓.

Turning to `COCCOCCOCCOCCOCCOCCOCCOCCOCCO[C@H]1CC[C@H]2[C@H]3Cc4ccc(OC)c5c4[C@@]2(CCN3C)[C@H]1O5` [α-6-mPEG9-O-Hydrocodonol], the “Fold Change vs. Hydrocodone” value at mu opioid receptor [7] is reported as 16.30 ↓.

On to α-6-hydroxycodone, for which the EC50 in series [9] was 3160 nM.

The values are drawn from patent publication US10512644B2, “Oligomer-opioid agonist conjugates” (Nektar Therapeutics, priority 2007, dated 2019).
